Key:
[1] = molecular target: human IRE-1α (GST-IRE-1α) (Homo sapiens (Human), UniProt O75460); assay: IRE-1α assay (cleavage of mini-XBP-1 mRNA stem-loop substrate); format: biochemical; conditions: average IC50 for inhibition of IRE-1α in vitro
Description: A fusion protein comprising glutathione S transferase (GST) and human IRE-1α (GST-IRE-1α) obtained from a 500 ml baculovirus-infected insect cell culture can be used to measure IRE-1α activity in vitro. Five μl of a reaction mixture comprising 1× reaction buffer (5× reaction buffer is 100 mM Hepes pH 7.5, 250 mM KOAc, 2.5 mM MgCl2), 3 mM DTT, and 0.4% polyethylene glycol water is added to each well of 384 well plates. Twenty-five nanoliters of a 1 mM test compound solution are added to test wells. […] Negative control wells contain only reaction mixture and test compound. After spinning the plates at 1200 rpm for 30 seconds, 3 μl of an IRE-1α human mini-XBP-1 mRNA stem-loop substrate [NT] ID NO:1), labeled with the fluorescent dye Cy5 at the [NT] end, are added to each well of a control plate. The plates are again spun at 1200 rpm for 30 seconds. […] The plates are covered with lids and incubated for one hour at 30° C. The plates are then transferred to an […] microplate reader. Data is analyzed using data analysis software, and the percent activity of IRE-1α is calculated.

[2] = test system: IRE-1α-mediated XBP-1 splicing in human myeloma MM.1s cells; assay: Cellular XBP-1 splicing assay in myeloma cells (RT-PCR); format: cell-based; conditions: Homo sapiens, MM1.S; average EC50, endogenous XBP-1 splicing in myeloma cells, DTT stress
Description: After an additional 45 minutes (2 hours total) with compound and DTT, the cells are harvested with TRIZOL® (a mono-phasic solution of phenol and guanidine isothiocyanate), and total RNA is prepared as directed by the manufacturer (Invitrogen). Human XBP-1 is amplified by RT-PCR with the following primers, which flank the 26 base unconventional intron excised by IRE-1α:
RT-PCR of unstressed (U) cells then generates the upper band. When cells are stressed (S) with the endoplasmic reticulum (ER) stressing agent DTT, IRE-1α is activated due to accumulating unfolded protein and the resulting RT-PCR product is 26 base pairs shorter.
Compounds which pass specificity assays are assayed for cellular EC50 using endogenous XBP-1 splicing in myeloma cells. XBP-1 is regulated through the excision of a 26 nucleotide intron from the XBP-1 mRNA by the highly specific endoribonuclease activity of IRE-1α. […] This splicing event is used to measure IRE-1α activity on XBP-1 mRNA in cells and tissues.
Briefly, compounds are incubated in the presence or absence of an ER stress agent (e.g., DTT), and the ratio of XBP-1u (unspliced) to XBP-1s (spliced) is quantified by RT-PCR.

Sequence of human IRE-1α (GST-IRE-1α) (O75460 19-977): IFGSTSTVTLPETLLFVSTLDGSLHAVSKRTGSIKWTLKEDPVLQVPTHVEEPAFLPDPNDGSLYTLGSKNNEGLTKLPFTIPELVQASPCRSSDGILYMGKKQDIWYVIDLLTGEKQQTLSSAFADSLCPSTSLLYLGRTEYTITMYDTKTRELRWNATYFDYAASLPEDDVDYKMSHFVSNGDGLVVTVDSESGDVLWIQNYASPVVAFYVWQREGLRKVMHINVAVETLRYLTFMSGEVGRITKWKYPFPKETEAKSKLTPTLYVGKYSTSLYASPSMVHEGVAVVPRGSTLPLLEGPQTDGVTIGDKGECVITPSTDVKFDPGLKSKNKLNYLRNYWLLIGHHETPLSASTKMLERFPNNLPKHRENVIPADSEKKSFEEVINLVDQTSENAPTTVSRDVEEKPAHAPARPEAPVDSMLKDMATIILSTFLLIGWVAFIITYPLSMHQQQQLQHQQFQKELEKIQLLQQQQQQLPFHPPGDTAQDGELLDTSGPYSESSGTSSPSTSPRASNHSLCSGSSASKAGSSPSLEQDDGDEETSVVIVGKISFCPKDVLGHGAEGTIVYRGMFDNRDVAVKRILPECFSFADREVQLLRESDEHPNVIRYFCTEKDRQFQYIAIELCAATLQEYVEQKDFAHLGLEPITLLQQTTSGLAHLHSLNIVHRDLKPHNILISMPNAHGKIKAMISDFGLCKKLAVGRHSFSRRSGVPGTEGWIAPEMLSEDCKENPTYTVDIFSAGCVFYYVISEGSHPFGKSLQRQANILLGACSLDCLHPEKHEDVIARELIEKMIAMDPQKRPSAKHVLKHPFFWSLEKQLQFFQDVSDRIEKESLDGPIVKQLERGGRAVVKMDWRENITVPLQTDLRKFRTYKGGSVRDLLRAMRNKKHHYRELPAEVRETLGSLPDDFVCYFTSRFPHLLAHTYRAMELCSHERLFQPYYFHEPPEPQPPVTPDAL

IC50 [1] | EC50 [2] | Compound
> 1 µM | < 10 µM | CS(=O)(=O)NC1CCN(c2ccc3c(C=O)c(O)ccc3c2)CC1 [Compound 93]
< 0.1 µM | < 10 µM | O=Cc1c(O)ccc2cc(/C=C/C(=O)N3CCOCC3)ccc12 [Compound 32]
< 1 µM | < 10 µM | O=Cc1c(O)ccc2cc(N3CCC(N4CCCCC4)C3)ccc12 (centres unmarked) [Compound 117]
< 1 µM | < 10 µM | N#Cc1ccc(Oc2ccc3c(C=O)c(O)ccc3c2)cc1 [Compound 181]
< 1 µM | > 10 µM | O=Cc1c(O)ccc2ccc(OS(=O)(=O)C(F)(F)F)cc12 [Compound 177]
> 1 µM | > 10 µM | CNC(=O)C1CCN(c2ccc3ccc(O)c(C=O)c3c2)C1 (centres unmarked) [Compound 131]
< 1 µM | < 10 µM | COCCNC(=O)c1ccc(-c2ccc3c(C=O)c(O)ccc3c2)cc1 [Compound 10]
< 0.1 µM | < 10 µM | CN1CCCCC1CNC(=O)c1ccc(-c2ccc3c(C=O)c(O)ccc3c2)s1 (centres unmarked) [Compound 62]
< 0.1 µM | < 10 µM | CN1CCC(NC(=O)c2ccc(-c3ccc4c(C=O)c(O)ccc4c3)s2)C1 (centres unmarked) [Compound 79]
> 1 µM | > 10 µM | O=Cc1c(O)ccc2cc(N3CCN(C4CCNCC4)CC3)ccc12 [Compound 113]
> 1 µM | > 10 µM | O=Cc1c(O)ccc2cc(-c3cc(C(=O)N4CCOCC4)ccc3Cl)ccc12 [Compound 24]
< 1 µM | > 10 µM | O=Cc1c(O)ccc2cc(-c3ccc(C(=O)N4CCOCC4)cn3)ccc12 [Compound 101]
> 1 µM | < 10 µM | CC(C)N1CCN(c2ccc3c(C=O)c(O)ccc3c2)CC1 [Compound 99]
> 1 µM | > 10 µM | CN1CCN(C2CCN(c3ccc4ccc(O)c(C=O)c4c3)C2)CC1 (centres unmarked) [Compound 138]
< 0.1 µM | < 10 µM | CN1CCN(C(=O)c2csc(-c3ccc4c(C=O)c(O)ccc4c3)n2)CC1 [Compound 60]
< 0.1 µM | < 10 µM | CN1CCCC(CNC(=O)c2ccc(-c3ccc4c(C=O)c(O)ccc4c3)s2)C1 (centres unmarked) [Compound 69]
< 0.1 µM | < 10 µM | O=Cc1c(O)ccc2cc(-c3ccc(C(=O)NCCN4CCOCC4)cc3)ccc12 [Compound 139]
> 1 µM | > 10 µM | CCOC(=O)CCc1ccc2c(C=O)c(O)ccc2c1 [Compound 40]
> 1 µM | > 10 µM | CN1CCN(C2CCN(c3ccc4ccc(O)c(C=O)c4c3)CC2)CC1 [Compound 89]
> 1 µM | > 10 µM | CC(C)N1CCN(c2ccc3ccc(O)c(C=O)c3c2)CC1 [Compound 159]
> 1 µM | < 10 µM | CN1CCN(C2CCN(c3ccc4c(C=O)c(O)ccc4c3)C2)CC1 (centres unmarked) [Compound 118]
> 1 µM | > 10 µM | CNC(=O)c1ccc(-c2ccc3c(C=O)c(O)ccc3c2)cc1 [Compound 9]
< 1 µM | < 10 µM | CN1CCN(C(=O)c2cncc(-c3ccc4c(C=O)c(O)ccc4c3)c2)CC1 [Compound 67]
< 0.1 µM | < 10 µM | O=Cc1c(O)ccc2cc(-c3ccc(C(=O)NC4CCCNC4)o3)ccc12 (centres unmarked) [Compound 171]
< 1 µM | < 10 µM | CN1CCC(NC(=O)c2ccc(-c3ccc4c(C=O)c(O)ccc4c3)s2)CC1 [Compound 38]
> 1 µM | < 10 µM | CN1CCC(NC(=O)c2ccc(-c3ccc4c(C=O)c(O)ccc4c3)cc2)CC1 [Compound 143]

IC50 [1] | EC50 [2] | Compound
< 0.1 µM | < 10 µM | Cc1nc(-c2ccc3c(C=O)c(O)ccc3c2)sc1C(=O)NC1CCNCC1 [Compound 144]
< 0.1 µM | < 10 µM | Cc1cc(C(=O)N(C)C)sc1-c1ccc2c(C=O)c(O)ccc2c1 [Compound 33]
< 1 µM | 10 µM | CN(C)C(=O)c1ccc(-c2ccc3c(C=O)c(O)ccc3c2)s1 [Compound 12]
< 0.1 µM | < 10 µM | O=Cc1c(O)ccc2cc(-c3ccc(C(=O)NCCN4CCOCC4)nc3)ccc12 [Compound 126]
> 1 µM | > 10 µM | CN(C)C(=O)C1CCN(c2ccc3c(C=O)c(O)ccc3c2)C1 (centres unmarked) [Compound 128]
> 1 µM | > 10 µM | CN(Cc1ccncc1)C1CCN(c2ccc3ccc(O)c(C=O)c3c2)C1 (centres unmarked) [Compound 155]
< 1 µM | < 10 µM | CN1CCN(C(=O)C2CCN(c3ccc4c(C=O)c(O)ccc4c3)C2)CC1 (centres unmarked) [Compound 112]
< 0.1 µM | < 10 µM | O=Cc1c(O)ccc2cc(-c3ccc(C(=O)NC4CCNC4)s3)ccc12 (centres unmarked) [Compound 73]
> 1 µM | > 10 µM | O=Cc1c(O)ccc2ccc(N3CCC(C(=O)N4CCCCC4)C3)cc12 (centres unmarked) [Compound 133]
< 0.1 µM | > 10 µM | CNC(=O)c1cccc(-c2ccc3c(C=O)c(O)ccc3c2)n1 [Compound 13]
< 0.1 µM | < 10 µM | O=Cc1c(O)ccc2cc(-c3ccc(C(=O)NCCN4CCOCC4)o3)ccc12 [Compound 71]
< 0.1 µM | < 10 µM | O=Cc1c(O)ccc2cc(-c3ccc(C(=O)NCC4CCNCC4)s3)ccc12 [Compound 43]
> 1 µM | > 10 µM | O=Cc1c(O)ccc2cc(OCC(=O)O)ccc12 [Compound 178]
< 1 µM | > 10 µM | COCCNC(=O)c1ccc(-c2ccc3c(C=O)c(O)ccc3c2)s1 [Compound 15]
> 1 µM | > 10 µM | O=Cc1c(O)ccc2cc(N3CCN(c4cccnc4)CC3)ccc12 [Compound 103]
< 1 µM | < 10 µM | CCOC(=O)/C=C/c1ccc2c(C=O)c(O)ccc2c1 [Compound 22]
< 0.1 µM | < 10 µM | O=Cc1c(O)ccc2cc(-c3ccc(C(=O)NCCCN4CCOCC4)s3)ccc12 [Compound 37]
> 1 µM | > 10 µM | O=Cc1c(O)ccc2ccc(N3CCC(C(=O)N4CCOCC4)C3)cc12 (centres unmarked) [Compound 149]
< 1 µM | > 10 µM | CN(Cc1ccncc1)C(=O)C1CCN(c2ccc3c(C=O)c(O)ccc3c2)C1 (centres unmarked) [Compound 158]
< 0.1 µM | > 10 µM | Cc1cc(C(=O)N2CCOCC2)sc1-c1ccc2c(C=O)c(O)ccc2c1 [Compound 25]
> 1 µM | < 10 µM | O=Cc1c(O)ccc2cc(N3CCC(NCc4cccnc4)CC3)ccc12 [Compound 116]
< 1 µM | > 10 µM | O=Cc1c(O)ccc2cc(CCC(=O)O)ccc12 [Compound 39]
< 0.1 µM | < 10 µM | Cc1cc(C(=O)N2CCN(C)CC2)sc1-c1ccc2c(C=O)c(O)ccc2c1 [Compound 34]
< 0.1 µM | < 10 µM | O=Cc1c(O)ccc2cc(-c3ccc(C(=O)NC4CCCNC4)cc3)ccc12 (centres unmarked) [Compound 49]
< 0.1 µM | < 10 µM | CNC(=O)c1cccc(-c2ccc3c(C=O)c(O)ccc3c2)c1 [Compound 8]
< 1 µM | > 10 µM | CC(=O)N1CCN(c2ccc3c(C=O)c(O)ccc3c2)CC1 [Compound 83]
